The values that follow come from article PMC4346889, “Discovery of Akt Kinase Inhibitors through Structure-Based Virtual Screening and Their Evaluation as Potential Anticancer Agents” (International Journal of Molecular Sciences, 2015).

Data set [1] concerns HEK-293 normal human embryonic kidney cells. In words: Cytotoxicity evaluation, ATPLite cell viability. The following applies: HEK293, 48 h, concentration required to inhibit cell growth by 50%, 2 days incubation. The class given is cell-based. The protocol: (§1) The 26 test compounds (as listed in Figure 4) were further evaluated at 100 µM for their cytotoxicity against HCT-116 human colon cancer cells and HEK-293 normal human embryonic kidney cells. […] Their chemical structures are shown in Figure S1 in the Supplementary Material.
(§2) Compounds were evaluated at 100 µM for their cytotoxicity against HCT-116 human colon cancer cells and HEK-293 normal human embryonic kidney cells. Cells were seeded at a density of 1 × 10^4 cells/well in 96-well plates and allowed to attach overnight. Cells were then treated with test compounds or 1% DMSO (vehicle control) and incubated at 37 °C in an atmosphere of 5% CO2 for 2 days. The ATPLite kit (PerkinElmer, Waltham, MA, USA) was used for detecting the cell viability.

Data set [2] concerns HCT-116 human colon cancer cells. In words: Cytotoxicity evaluation, ATPLite cell viability. The class given is cell-based. As to conditions: for IC50: Homo sapiens, HCT-116, 48 h, concentration required to inhibit cell growth by 50%, 2 days incubation; for Selectivity index: ratio of IC50 for HEK-293/IC50 for HCT-116. A general note: ATP-based viability assays read luminescence as a measure of living cells.

Data set [3] addresses T1, Akt kinase (Homo sapiens, UniProt P31749).
T1 construct: purchased Enzo Life Sciences EKS-400A
In words: Akt kinase inhibition assay (EKS-400A assay kit). In kind it is biochemical. The method, then: The 48 selected compounds from virtual screening were assessed at 100 µM for their ability to inhibit Akt kinase activity using the EKS-400A assay kit (Enzo Life Sciences, Farmingdale, NY, USA).
Compounds were evaluated at 100 µM for their ability to inhibit Akt kinase activity using the EKS-400A assay kit (Enzo Life Sciences). Test compounds or 1% DMSO (vehicle control) were incubated with the 8 ng pure Akt kinase in Hanks’ Balanced Salt Solution (HBSS) at 37 °C for 30 min.

Data set [4] has as its target T1, Akt kinase. As to conditions: cited from earlier work.
For data set [5], the system named is HCT-116 human colon cancer cells. In words: Cytotoxicity evaluation, ATPLite cell viability. In kind it is cell-based. The following applies: at 100 µM, compared with reference H-89. The protocol:
as §1, §2

Where only a bound is given, the exact number is not on record here.

T1 sequence (P31749 whole entry): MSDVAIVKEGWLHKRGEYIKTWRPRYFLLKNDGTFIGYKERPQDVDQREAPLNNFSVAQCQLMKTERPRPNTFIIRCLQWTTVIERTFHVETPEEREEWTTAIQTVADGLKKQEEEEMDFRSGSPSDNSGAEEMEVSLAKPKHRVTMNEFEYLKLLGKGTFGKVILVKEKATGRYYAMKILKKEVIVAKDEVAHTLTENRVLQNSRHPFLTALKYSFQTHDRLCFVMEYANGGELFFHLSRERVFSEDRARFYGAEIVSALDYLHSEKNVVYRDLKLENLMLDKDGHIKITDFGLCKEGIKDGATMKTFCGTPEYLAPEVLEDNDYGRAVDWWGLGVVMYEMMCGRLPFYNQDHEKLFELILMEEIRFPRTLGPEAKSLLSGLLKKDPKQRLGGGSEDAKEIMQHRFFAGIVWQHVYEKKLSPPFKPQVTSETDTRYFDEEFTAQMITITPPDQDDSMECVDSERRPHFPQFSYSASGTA

Usually IC50 stands for the midpoint of a concentration-inhibition curve. For `O=S(=O)(NCCNC/C=C/c1ccc(Br)cc1)c1cccc2cnccc12` [Compound H-89, H-89, reference compound], the IC50 in data set [1] turned out to be 112 µM; in data set [2] it was 78.9 µM.

For the compound `Cc1nn(C)cc1-c1nnc(SCC(=O)Nc2cc(C(F)(F)F)ccc2Cl)n1-c1ccc(Cl)cc1` [Compound a46], the IC50 at Akt kinase [3] was found to be 201 µM; in data set [1] it was 139 µM; in data set [2] it was 11.1 µM. Further, the Selectivity index in data set [2] turned out to be 12.5.

The term inhibition denotes the percentage by which the read-out fell short of the control. A higher inhibition goes with a strong effect. On Akt kinase [3] (at 100 µM), `Nc1ncnc2nc(SCC(=O)Nc3ccc(Br)cc3)[nH]c12` [Compound a48] had an inhibition at 100 µM of 75%. Besides, the remaining activity at 100 µM on Akt kinase [3] (compound at 100 µM, read-out: Akt kinase residual activity) was below 60%. Further, the IC50 in data set [1] was 153 µM. In data set [2], inhibition was half-maximal at 9.5 µM (IC50) and the Selectivity index is reported as 16.1.

`CCn1c(-c2nonc2N)nc2c(C#CC(C)(C)O)ncc(OC[C@H]3CCCNC3)c21` [GSK690693]: the “pan-Akt kinase inhibitor activity” value on Akt kinase [4] is on record as “low nanomolar activity”.

For `Cc1cccc(Nc2nc3nonc3nc2N/N=C/c2cc3c(cc2Br)OCO3)c1C` [a33], in data set [5], the “cytotoxic activity against HCT-116 compared to H-89” value is listed as “more potent or comparable cytotoxic activity to that of H-89”. This compound registered an IC50 in data set [1] of 165 µM. In addition, in data set [2], the IC50 turned out to be 109 µM and the Selectivity index was determined as 1.5.

`Cc1cccc(-c2nc3cc(/N=C/c4c(C)cc(O)c(C)c4O)ccc3o2)c1` [a44]: the “cytotoxic activity against HCT-116 compared to H-89” value in data set [5] is “more potent or comparable cytotoxic activity to that of H-89”. Moreover, the IC50 in data set [1] came out at 102 µM; in data set [2], 50.6 µM. In addition, the Selectivity index in data set [2] amounted to 2.0.
